Measurements reported in the supplement of paper PMC10307832.

Key:
Assay in all cases: relative viability (nuclei count vs DMSO), 5 days (fraction); higher = more cells survive
ChaGo-K-1 = tested on: ChaGo-K-1
How it was run: (§1)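 Nuclei were stained with Hoechst during a one-step fixation (final 0.05% Triton X-100, 1% formaldehyde, 1 ug/ml Hoechst) carried out 5 days after dosing, then counted on 4× images. The cells, lung cancer lines in 1536-well plates, had been dosed by pin tool the day after seeding with one drug alone or a fixed anchor-drug dose plus five library-drug doses (not always all listed) in √10 steps. Relative viability is the nuclei count in treated wells divided by that in vehicle wells, and each value is the median of duplicate plates.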

EMC-BAC-2 = tested on: EMC-BAC-2
How it was run: as §1

EPLC-272H = tested on: EPLC-272H
How it was run: as §1

H3255 = tested on: H3255
How it was run: as §1

HCC-44 = tested on: HCC-44
How it was run: as §1

HCC-827 = tested on: HCC-827
How it was run: as §1

LCLC-103H = tested on: LCLC-103H
How it was run: as §1

LCLC-97TM1 = tested on: LCLC-97TM1
How it was run: as §1

NCI-H1355 = tested on: NCI-H1355
How it was run: as §1

NCI-H1563 = tested on: NCI-H1563
How it was run: as §1

NCI-H1651 = tested on: NCI-H1651
How it was run: as §1

NCI-H1944 = tested on: NCI-H1944
How it was run: as §1

NCI-H1993 = tested on: NCI-H1993
How it was run: as §1

NCI-H2085 = tested on: NCI-H2085
How it was run: as §1

NCI-H2087 = tested on: NCI-H2087
How it was run: as §1

NCI-H23 = tested on: NCI-H23
How it was run: as §1

NCI-H2405 = tested on: NCI-H2405
How it was run: as §1

NCI-H322M = tested on: NCI-H322M
How it was run: as §1

NCI-H520 = tested on: NCI-H520
How it was run: as §1

NCI-H650 = tested on: NCI-H650
How it was run: as §1

SK-MES-1 = tested on: SK-MES-1
How it was run: as §1

UMC-11 = tested on: UMC-11
How it was run: as §1

NCI-H1395 = tested on: NCI-H1395
How it was run: as §1

NCI-H1793 = tested on: NCI-H1793
How it was run: as §1

CC(C)Oc1cc(Nc2nc(N[C@@H](C)c3ccc(F)cn3)ncc2Cl)n[nH]1 [AZ23] + C[C@@H](Oc1cc(-c2cnn(C3CCNCC3)c2)cnc1N)c1c(Cl)ccc(F)c1Cl [Crizotinib] (partner 1 µM)
relative viability (ChaGo-K-1; first compound 0.01 µM): 1.37
relative viability (ChaGo-K-1; first compound 0.03162 µM): 1.08
relative viability (ChaGo-K-1; first compound 0.3162 µM): 1.24
relative viability (EMC-BAC-2; first compound 0.01 µM): 0.804
relative viability (EMC-BAC-2; first compound 0.03162 µM): 0.817
relative viability (EMC-BAC-2; first compound 0.3162 µM): 0.777
relative viability (EPLC-272H; first compound 0.01 µM): 1.19
relative viability (EPLC-272H; first compound 0.03162 µM): 1.19
relative viability (H3255; first compound 0.01 µM): 0.981
relative viability (H3255; first compound 0.03162 µM): 1.18
relative viability (H3255; first compound 0.3162 µM): 1.01
relative viability (HCC-44; first compound 0.01 µM): 0.934
relative viability (HCC-44; first compound 0.03162 µM): 0.952
relative viability (HCC-44; first compound 0.3162 µM): 0.826
relative viability (HCC-827; first compound 0.01 µM): 0.993
relative viability (HCC-827; first compound 0.03162 µM): 1.03
relative viability (HCC-827; first compound 0.3162 µM): 0.881
relative viability (LCLC-103H; first compound 0.01 µM): 1.13
relative viability (LCLC-103H; first compound 0.03162 µM): 1.13
relative viability (LCLC-103H; first compound 0.3162 µM): 1.13
relative viability (LCLC-97TM1; first compound 0.01 µM): 0.424
relative viability (LCLC-97TM1; first compound 0.03162 µM): 0.527
relative viability (LCLC-97TM1; first compound 0.3162 µM): 0.305
relative viability (NCI-H1355; first compound 0.01 µM): 1.19
relative viability (NCI-H1355; first compound 0.03162 µM): 1.11
relative viability (NCI-H1355; first compound 0.3162 µM): 1.09
relative viability (NCI-H1563; first compound 0.01 µM): 0.837
relative viability (NCI-H1563; first compound 0.03162 µM): 0.912
relative viability (NCI-H1563; first compound 0.3162 µM): 0.865
relative viability (NCI-H1651; first compound 0.01 µM): 0.94
relative viability (NCI-H1651; first compound 0.03162 µM): 0.97
relative viability (NCI-H1651; first compound 0.3162 µM): 0.875
relative viability (NCI-H1944; first compound 0.01 µM): 1.11
relative viability (NCI-H1944; first compound 0.03162 µM): 1.18
relative viability (NCI-H1944; first compound 0.3162 µM): 1.17
relative viability (NCI-H1993; first compound 0.01 µM): 0.857
relative viability (NCI-H1993; first compound 0.3162 µM): 0.804
relative viability (NCI-H2085; first compound 0.01 µM): 1.03
relative viability (NCI-H2085; first compound 0.03162 µM): 0.94
relative viability (NCI-H2085; first compound 0.3162 µM): 0.838
relative viability (NCI-H2087; first compound 0.01 µM): 1.16
relative viability (NCI-H2087; first compound 0.03162 µM): 1.11
relative viability (NCI-H2087; first compound 0.3162 µM): 1.04
relative viability (NCI-H23; first compound 0.03162 µM): 0.617
relative viability (NCI-H23; first compound 0.3162 µM): 0.539
relative viability (NCI-H2405; first compound 0.01 µM): 0.825
relative viability (NCI-H2405; first compound 0.03162 µM): 0.904
relative viability (NCI-H2405; first compound 0.3162 µM): 0.854
relative viability (NCI-H322M; first compound 0.01 µM): 1.08
relative viability (NCI-H322M; first compound 0.03162 µM): 1.14
relative viability (NCI-H322M; first compound 0.3162 µM): 0.939
relative viability (NCI-H520; first compound 0.01 µM): 0.869
relative viability (NCI-H520; first compound 0.03162 µM): 0.864
relative viability (NCI-H520; first compound 0.3162 µM): 0.732
relative viability (NCI-H650; first compound 0.01 µM): 0.866
relative viability (NCI-H650; first compound 0.03162 µM): 0.813
relative viability (NCI-H650; first compound 0.3162 µM): 0.847
relative viability (SK-MES-1; first compound 0.01 µM): 1.02
relative viability (SK-MES-1; first compound 0.03162 µM): 1.14
relative viability (SK-MES-1; first compound 0.3162 µM): 0.938
relative viability (UMC-11; first compound 0.01 µM): 0.552
relative viability (UMC-11; first compound 0.03162 µM): 0.73
relative viability (UMC-11; first compound 0.3162 µM): 0.555

CC(C)Oc1cc(Nc2nc(N[C@@H](C)c3ccc(F)cn3)ncc2Cl)n[nH]1 [AZ23] + CS(=O)(=O)CCNCc1ccc(-c2ccc3ncnc(Nc4ccc(OCc5cccc(F)c5)c(Cl)c4)c3c2)o1 [Lapatinib] (partner 2 µM)
relative viability (EMC-BAC-2; first compound 0.01 µM): 0.968
relative viability (EMC-BAC-2; first compound 0.03162 µM): 0.981
relative viability (EMC-BAC-2; first compound 0.3162 µM): 0.922
relative viability (EPLC-272H; first compound 0.01 µM): 0.885
relative viability (EPLC-272H; first compound 0.03162 µM): 1.16
relative viability (H3255; first compound 0.01 µM): 0.203
relative viability (H3255; first compound 0.03162 µM): 0.252
relative viability (H3255; first compound 0.3162 µM): 0.279
relative viability (HCC-44; first compound 0.01 µM): 1.01
relative viability (HCC-44; first compound 0.03162 µM): 1.21
relative viability (HCC-44; first compound 0.3162 µM): 1.09
relative viability (HCC-827; first compound 0.01 µM): 0.205
relative viability (HCC-827; first compound 0.03162 µM): 0.172
relative viability (HCC-827; first compound 0.3162 µM): 0.21
relative viability (LCLC-97TM1; first compound 0.01 µM): 0.881
relative viability (LCLC-97TM1; first compound 0.03162 µM): 0.842
relative viability (LCLC-97TM1; first compound 0.3162 µM): 1.23
relative viability (NCI-H1355; first compound 0.01 µM): 1.16
relative viability (NCI-H1355; first compound 0.03162 µM): 1.07
relative viability (NCI-H1355; first compound 0.3162 µM): 0.939
relative viability (NCI-H1395; first compound 0.03162 µM): 0.943
relative viability (NCI-H1395; first compound 0.3162 µM): 1.03
relative viability (NCI-H1563; first compound 0.01 µM): 0.915
relative viability (NCI-H1563; first compound 0.03162 µM): 1.06
relative viability (NCI-H1563; first compound 0.3162 µM): 0.921
relative viability (NCI-H1651; first compound 0.01 µM): 0.685
relative viability (NCI-H1651; first compound 0.03162 µM): 0.921
relative viability (NCI-H1651; first compound 0.3162 µM): 0.973
relative viability (NCI-H1793; first compound 0.01 µM): 0.367
relative viability (NCI-H1793; first compound 0.03162 µM): 0.804
relative viability (NCI-H1793; first compound 0.3162 µM): 0.486
relative viability (NCI-H1944; first compound 0.01 µM): 0.789
relative viability (NCI-H1944; first compound 0.03162 µM): 0.88
relative viability (NCI-H1944; first compound 0.3162 µM): 0.903
relative viability (NCI-H1993; first compound 0.01 µM): 0.808
relative viability (NCI-H1993; first compound 0.3162 µM): 0.946
relative viability (NCI-H2085; first compound 0.01 µM): 0.771
relative viability (NCI-H2085; first compound 0.03162 µM): 0.735
relative viability (NCI-H2085; first compound 0.3162 µM): 0.772
relative viability (NCI-H2087; first compound 0.01 µM): 1.17
relative viability (NCI-H2087; first compound 0.03162 µM): 1.17
relative viability (NCI-H2087; first compound 0.3162 µM): 1.05
relative viability (NCI-H23; first compound 0.03162 µM): 1.23
relative viability (NCI-H23; first compound 0.3162 µM): 1.07
relative viability (NCI-H2405; first compound 0.01 µM): 1
relative viability (NCI-H2405; first compound 0.03162 µM): 1.16
relative viability (NCI-H2405; first compound 0.3162 µM): 0.943
relative viability (NCI-H322M; first compound 0.01 µM): 0.575
relative viability (NCI-H322M; first compound 0.03162 µM): 0.621
relative viability (NCI-H322M; first compound 0.3162 µM): 0.614
relative viability (NCI-H520; first compound 0.01 µM): 0.842
relative viability (NCI-H520; first compound 0.03162 µM): 0.964
relative viability (NCI-H520; first compound 0.3162 µM): 0.8
relative viability (NCI-H650; first compound 0.01 µM): 0.649
relative viability (NCI-H650; first compound 0.03162 µM): 1.19
relative viability (NCI-H650; first compound 0.3162 µM): 0.849
relative viability (SK-MES-1; first compound 0.01 µM): 0.492
relative viability (SK-MES-1; first compound 0.03162 µM): 0.484
relative viability (SK-MES-1; first compound 0.3162 µM): 0.491
relative viability (UMC-11; first compound 0.01 µM): 0.946
relative viability (UMC-11; first compound 0.03162 µM): 0.994
relative viability (UMC-11; first compound 0.3162 µM): 1.02
